Holding throughout (test): growth of human tumour cells (NCI), 48 h
Assay [1] relates to SF-295 CNS.
For assay [2], the system named is IGROV1 ovarian.
Assay [3] deals with MDA-MB-435.
The test system of assay [4] is HCC-2998 colon.
Assay [5] has as its system NCI-H522 lung.
In assay [6] the test system is U251 CNS.
Assay [7] relates to SK-OV-3 ovarian.
Assay [8] deals with COLO 205 colon.
The test system of assay [9] is TK-10 renal.
Assay [10] deals with MDA-MB-231 breast.

Values joined by “and” are separate entries in the source; they are usually repeats but may differ in a detail not shown here. Identical values can stand only once.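 Growth conditions: 96-well plates. Treatment: test compound, 48 hours, 5 concentrations. Analysis: linear interpolation between bracketing concentrations; unreached endpoints set to highest concentration. GI50 is the concentration that inhibits growth by half. TGI: concentration producing complete growth inhibition.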

For `COc1ccc2c(c1)N(CCO)C1=C(C(=O)OC1)C2c1ccc(OC)c(OC)c1` (stereo not given), the GI50 in assay [1] is 2.43 µM; in [2], 3.46 µM; in [3] it was 0.407 µM; in [4], 2.61 µM; in [5], 1.48 µM; in assay [6], 2.97 µM. Further, the GI50 is 4.13 µM in assay [7], 2.53 µM in assay [8], 4.19 µM in assay [9] and 3.63 µM in assay [10]. In addition, the TGI in assay [1] was over 100 µM; in assay [2], over 100 µM; in assay [3] it was 2.13 µM; in assay [4], over 100 µM; in assay [5], 5.25 µM; in assay [6], over 100 µM. The TGI in assay [7] was over 100 µM; in assay [8], 5.93 µM; in assay [9], over 100 µM; in assay [10], 10.7 µM.

On to `N[C@@H](CSSC[C@H](N)C(=O)N1CCn2cc(-c3ccccc3)nc2[C@@H]1CC1CCCCC1)C(=O)N1CCn2cc(-c3ccccc3)nc2[C@@H]1CC1CCCCC1`, for which the GI50 in assay [1] is 1.83 µM; in assay [2], 2.41 µM; in assay [3] it was 0.331 µM; in [4], 1.66 µM; in assay [5] it was 1.68 µM; in [6], 1.37 µM. For the same compound, the GI50 is 1.59 µM in assay [7], 1.79 µM in [8], 2.05 µM in assay [9] and 1.74 µM in [10]. Also, the TGI in assay [1] came out at 3.41 µM; in [2], 5.96 µM; in assay [3], 1.45 µM; in assay [4] it was 3.17 µM; in assay [5], 3.39 µM; in assay [6] it was 2.76 µM. In addition, the TGI in assay [7] came out at 5.42 µM; in assay [8], 3.27 µM; in [9] it was 4.45 µM; in assay [10], 3.68 µM.

Regarding `Cc1cc2c(cc1Cl)N1C(=O)NS(=O)(=O)N=C1NS2(=O)=O`, the GI50 in [1], in assay [2], in [3], in [4], in assay [5] and in assay [6] was over 100 µM in each case. Further, the GI50 in assay [7], in assay [8], in [9] and in [10] was over 100 µM throughout. In addition, the TGI in [1], in [2], in [3], in [4], in assay [5] and in [6] was over 100 µM each time. Besides, the TGI in assay [7], in [8], in assay [9] and in assay [10] was over 100 µM throughout.

Consider `C=C1C(=O)C2(C)OC2(C)C1C(=O)O` (stereo not given), for which the TGI in assay [1], in assay [2], in assay [3], in [4], in assay [5] and in assay [6] was over 100 µM in each case. Besides, the TGI in assay [7], in [8], in assay [9] and in assay [10] was over 100 µM in each case.

On to `COc1cc(Cn2c(SCC(=O)Nc3ccc(Cl)cc3)nc3ccccc3c2=O)cc(OC)c1OC`, for which the GI50 in [1] was 5.54 µM; in assay [2] it was 19 µM; in assay [3], 22.8 µM; in assay [4] it was 26.6 µM; in [5] it was 4.89 µM; in assay [6] it was 3.14 µM. Moreover, the GI50 in assay [7] was 4.2 µM; in assay [8] it was 73.2 µM; in assay [9], 2.63 µM; in [10] it was 3.08 µM. In addition, the TGI in assay [1] was 18.4 µM; in assay [2] it was 55.8 µM; in assay [3], over 100 µM; in [4], over 100 µM; in assay [5], 21.9 µM; in [6], 11.1 µM. Besides, the TGI in [7] is 16.7 µM; in assay [8] it was over 100 µM; in assay [9], 7.67 µM; in [10] it was 13 µM.

For `O=C1/C(=C/c2ccccc2[N+](=O)[O-])COc2ccc(O)c(O)c21`, the GI50 in assay [1] is 3.26 µM; in [2], 0.73 µM; in assay [3] it was 0.691 µM; in [4], 1.56 µM; in assay [5] it was 0.208 µM; in assay [6] it was 0.922 µM. Also, the GI50 in assay [7] was 3.91 µM; in assay [8], 0.71 µM; in assay [9], 1.22 µM; in [10] it was 0.799 µM. The TGI was 11.1 µM in [1]; 2.55 µM in [2]; 2.38 µM in assay [3]; 3.16 µM in assay [4]; 0.509 µM in assay [5]; 5.76 µM in [6]. The TGI came to 14.3 µM in [7], 2.57 µM in [8], 3.32 µM in assay [9] and 2.68 µM in assay [10].

As for `CCc1ccc([O-])c(C=NCCCN(C)CCCN=Cc2cc(C)ccc2[O-])c1.[Co+3].[N-]=[N+]=[N-]`, the GI50 was 28.1 µg/mL and 16.9 µg/mL in assay [1]; 20.5 µg/mL and 24.6 µg/mL in assay [2]; 50 µg/mL in assay [3]; 50 µg/mL and 123 µg/mL in assay [4]; 50 µg/mL and > 150 µg/mL in assay [5]; 20.1 µg/mL and 33 µg/mL in assay [6]. In addition, the GI50 in [7] was 12.9 µg/mL and 37.3 µg/mL; in assay [8], 50 µg/mL and > 150 µg/mL; in assay [9], 29 µg/mL; in assay [10] it was 15.2 µg/mL. In addition, the TGI is 50 µg/mL and 48.1 µg/mL in [1]; 50 µg/mL and 55.5 µg/mL in assay [2]; 50 µg/mL in [3]; 50 µg/mL and > 150 µg/mL in assay [4]; 50 µg/mL and > 150 µg/mL in [5]; 50 µg/mL and 123 µg/mL in assay [6]. Further, the TGI in [7] was 50 µg/mL and 85.9 µg/mL; in assay [8], 50 µg/mL and > 150 µg/mL; in [9] it was 50 µg/mL; in assay [10] it was 38.5 µg/mL.
